Laboratory results from patent publication US9670204B2, “Compounds and pharmaceutical compositions thereof for the treatment of inflammatory disorders” (Galapagos NV, priority 2013, dated 2017).

What was measured:
[1] = target: T1, hENPP2 (UniProtKB/SwissProt Q13822) (Homo sapiens (Human), UniProt Q13822); test: fluorescent hENPP2 biochemical assay, FS-3 as substrate; settings: read-out: FS3-IC50
Outline: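 hENPP2 in 50 mM Tris-HCl pH 8.0, 250 mM NaCl, 5 mM KCl, 1 mM MgCl2, 1 mM CaCl2, 0.1% fatty-acid-free BSA, preincubated with compound 30 min at room temperature. The 0.75 μM FS-3 solution was added and the mixture incubated 30 min at 30° C. Fluorescence (ex 485/em 520 nm) gives IC50.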

[2] = target: T1, hENPP2; test: hENPP2 biochemical assay, LPC as substrate; settings: LPC (palmitoyl 16:0) as substrate
Outline: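 Human ENPP2 in 50 mM Tris-HCl pH 8.5, 500 mM NaCl, 5 mM KCl, 10 mM CaCl2, 0.1% fatty-acid-free BSA, reacted 30 min at 37 °C with LPC 16:0 (150 µM solution added 1:1). Released choline measured via choline oxidase/peroxidase/TOOS/4-aminoantipyrine quinoneimine dye at 555 nm; IC50 reported.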

SMILES | IC50 [1] | IC50 [2] | LPC-IC50 [2]
CCc1nc2ccc(C3=CN(S(C)(=O)=O)CCC3)cn2c1N(C)c1nc(-c2ccc(Cl)cc2)cs1 [Compound 69, 4-(4-chlorophenyl)-N-(2-ethyl-6-(1-(methylsulfonyl)-1,4,5,6-tetrahydropyridin-3-yl)imidazo[1,2-a]pyridin-3-yl)-N-methylthiazol-2-amine] | 0.01 to 100 nM | > 1000 nM | 
CCc1nc2ccc(C3CCN(S(C)(=O)=O)CC3)cn2c1N(C)c1nc(-c2ccc(F)cc2Cl)cs1 [Compound 99, 4-(2-chloro-4-fluorophenyl)-N-(2-ethyl-6-(1-(methylsulfonyl)piperidin-4-yl)imidazo [1,2-a]pyridin-3-yl)-N-methylthiazol-2-amine] | 0.01 to 100 nM | > 1000 nM | 
CCc1nc2ccc(N3CCN(S(=O)(=O)CC(=O)O)CC3)cn2c1N(C)c1nc(-c2ccc(F)cc2)cs1 [Compound 60, 2-(4-(2-ethyl-3-((4-(4-fluorophenyl)thiazol-2-yl)(methyl)amino)imidazo[1,2-a]pyridin-6-yl)piperazin-1-ylsulfonyl)acetic acid] | 0.01 to 100 nM | > 1000 nM | 
CCc1nc2ccc(C3=CCN(S(C)(=O)=O)CC3)cn2c1N(C)c1nc(-c2ccc(F)cc2)no1 [Compound 189, N-(2-ethyl-6-(1-(methylsulfonyl)-1,2,3,6-tetrahydropyridin-4-yl)imidazo[1,2-a]pyridin-3-yl)-3-(4-fluorophenyl)-N-methyl-1,2,4-oxadiazol-5-amine] | 0.01 to 100 nM | > 1000 nM | 
CCc1nc2ccc(C3CCN(S(C)(=O)=O)CC3)cn2c1N(C)c1nc(-c2ccc(F)cc2F)cs1 [Compound 100, 4-(2,4-difluorophenyl)-N-(2-ethyl-6-(1-(methylsulfonyl)piperidin-4-yl)imidazo [1,2-a]pyridin-3-yl)-N-methylthiazol-2-amine] | 0.01 to 100 nM | > 1000 nM | 
CCc1nc2ccc(C3CCN(S(C)(=O)=O)CC3)cn2c1N(C)c1nc(-c2ccc(F)cc2)c(C)s1 [Compound 101, N-(2-ethyl-6-(1-(methylsulfonyl)piperidin-4-yl)imidazo [1,2-a]pyridin-3-yl)-4-(4-fluorophenyl)-N,5-dimethylthiazol-2-amine] | 0.01 to 100 nM | > 1000 nM | 
CCc1nc2ccc(C3=CCN(S(C)(=O)=O)CC3)cn2c1N(C)c1nc(-c2ccc(F)cc2)ns1 [Compound 199, N-(2-ethyl-6-(1-(methylsulfonyl)-1,2,3,6-tetrahydropyridin-4-yl)imidazo[1,2-a]pyridin-3-yl)-3-(4-fluorophenyl)-N-methyl-1,2,4-thiadiazol-5-amine] | 100 to 500 nM | > 1000 nM | 
CCc1nc2ccc(N3CCN(C(=O)OC(C)(C)C)CC3)cn2c1N(C)c1nc(-c2ccc(Cl)cc2)ns1 [Compound 225, tert-butyl 4-(3-((3-(4-chlorophenyl)-1,2,4-thiadiazol-5-yl)(methyl)amino)-2-ethylimidazo[1,2-a]pyridin-6-yl) piperazine-1-carboxylate] | 0.01 to 100 nM | > 1000 nM | 
CCc1nc2ccc(C3CCN(S(C)(=O)=O)CC3O)cn2c1N(C)c1nc(-c2ccc(F)cc2)cs1 (centres unmarked) [Compound 79, 4-(2-ethyl-3-((4-(4-fluorophenyl)thiazol-2-yl)(methyl)amino)imidazo[1,2-a]pyridin-6-yl)-1-(methylsulfonyl) piperidin-3-ol] | 0.01 to 100 nM | > 1000 nM | 
CCc1nc2ccc(C3=CCN(S(=O)(=O)CCCCl)CC3)cn2c1N(C)c1nc(-c2ccc(F)cc2)cs1 [Compound 233, N-(6-(1-(3-chloropropylsulfonyl)-1,2,3,6-tetrahydropyridin-4-yl)-2-ethylimidazo[1,2-a]pyridin-3-yl)-4-(4-fluorophenyl)-N-methylthiazol-2-amine] | 0.01 to 100 nM |  | not active
CCc1nc2ccc(N3CCN(C(=O)C4CC4)CC3)cn2c1N(C)c1nc(-c2ccc(F)cc2)cs1 [Compound 227, Cyclopropyl-[4-(2-ethyl-3-{[4-(4-fluoro-phenyl)-thiazol-2-yl]-methyl-amino}-imidazo[1,2-a]pyridin-6-yl)-piperazin-1-yl]-methanone] | 0.01 to 100 nM | > 1000 nM | 
CCc1nc2ccc(N3CCN(C(=O)C(N)=O)CC3)cn2c1N(C)c1nc(-c2ccc(F)cc2)cs1 [Compound 204, 2-(4-(2-ethyl-3-((4-(4-fluorophenyl)thiazol-2-yl)(methyl)amino)imidazo[1,2-a]pyridin-6-yl)piperazin-1-yl)-2-oxoacetamide] | 0.01 to 100 nM | > 1000 nM | 
CCc1nc2ccc(N3CCNC3=O)cn2c1N(C)c1nc(-c2ccc(Cl)cc2)cs1 [Compound 183, 1-(3-((4-(4-chlorophenyl)thiazol-2-yl)(methyl)amino)-2-ethylimidazo[1,2-a]pyridin-6-yl)imidazolidin-2-one] | 0.01 to 100 nM | > 1000 nM | 
CCc1nc2ccc(C3=CCN(C(=O)OC(C)(C)C)CC3)cn2c1N(C)c1nc(-c2ccc(F)cc2)cs1 [Compound 214, tert-butyl 4-(2-ethyl-3-((4-(4-fluorophenyl)thiazol-2-yl)(methyl)amino)imidazo[1,2-a]pyridin-6-yl)-5,6-dihydropyridine-1(2H)-carboxylate] | 0.01 to 100 nM | > 1000 nM | 
CCc1nc2ccc(N3CCN(Cc4nnnn4C4CC4)CC3)cn2c1N(C)c1nc(-c2ccc(F)cc2)cs1 [Compound 39, N-(6-(4-((1-cyclopropyl-1H-tetrazol-5-yl)methyl)piperazin-1-yl)-2-ethylimidazo[1,2-a]pyridin-3-yl)-4-(4-fluorophenyl)-N-methylthiazol-2-amine] | 0.01 to 100 nM | > 1000 nM | 
CCc1nc2ccc(N3CCN(CC(=O)N(C)C)CC3)cn2c1N(C)c1nc(-c2ccc(F)cc2)c(C(=O)C(F)(F)F)s1 [Compound 158, 2-(4-(2-ethyl-3-((4-(4-fluorophenyl)-5-(2,2,2-trifluoroacetoyl)thiazol-2-yl)(methyl)amino)imidazo[1,2-a]pyridin-6-yl)piperazin-1-yl)-N,N-dimethylacetamide] | 0.01 to 100 nM | 100 to 500 nM | 
CCc1nc2ccc(C3CCN(S(C)(=O)=O)CC3)cn2c1N(C)c1nc(-c2ccc(F)cc2)c(CC#N)s1 [Compound 186, 2-(2-((2-ethyl-6-(1-(methylsulfonyl)piperidin-4-yl)imidazo[1,2-a]pyridin-3-yl)(methyl)amino)-4-(4-fluorophenyl)thiazol-5-yl)acetonitrile] | 0.01 to 100 nM | > 1000 nM | 
CCc1nc2ccc(C3CCN(Cc4ccccc4)CC3)cn2c1N(C)c1nc(-c2ccc(F)cc2)cs1 [Compound 217, [6-(1-Benzyl-piperidin-4-yl)-2-ethyl-imidazo[1,2-a]pyridin-3-yl]-[4-(4-fluoro-phenyl)-thiazol-2-yl]-methyl-amine] | 0.01 to 100 nM | > 1000 nM | 
CCc1nc2ccc(N3CCN(C(=O)OCCO)CC3)cn2c1N(C)c1nc(-c2ccc(F)cc2)cs1 [Compound 43, 2-hydroxyethyl 4-(2-ethyl-3-((4-(4-fluorophenyl)thiazol-2-yl)(methyl)amino)imidazo[1,2-a]pyridin-6-yl)piperazine-1-carboxylate] | 0.01 to 100 nM | > 1000 nM | 
CCc1nc2ccc(N3CCN(S(=O)(=O)CC(N)=O)CC3)cn2c1N(C)c1nc(-c2ccc(F)cc2)cs1 [Compound 61, 2-(4-(2-ethyl-3-((4-(4-fluorophenyl)thiazol-2-yl)(methyl)amino)imidazo[1,2-a]pyridin-6-yl)piperazin-1-ylsulfonyl)acetamide] | 0.01 to 100 nM | > 1000 nM | 
CCc1nc2ccc(C3CCN(C(=O)CN4CC(F)C4)CC3)cn2c1N(C)c1nc(-c2ccc(F)cc2)cs1 [Compound 133, 1-(4-(2-ethyl-3-((4-(4-fluorophenyl)thiazol-2-yl)(methyl)amino)imidazo[1,2-a]pyridin-6-yl)piperidin-1-yl)-2-(3-fluoroazetidin-1-yl)ethanone] | 0.01 to 100 nM | 100 to 500 nM | 
CCc1nc2ccc(N3CCN(CC(=O)N4CC[C@H](O)C4)CC3)cn2c1N(C)c1nc(-c2ccc(F)cc2)cs1 [Compound 25, (S)-2-(4-(2-ethyl-3-((4-(4-fluorophenyl)thiazol-2-yl)(methyl)amino)imidazo[1,2-a]pyridin-6-yl)piperazin-1-yl)-1-(3-hydroxypyrrolidin-1-yl)ethanone] | 0.01 to 100 nM | 100 to 500 nM | 
CCc1nc2ccc(N3CCN(S(=O)(=O)CCCCl)CC3)cn2c1N(C)c1nc(-c2ccc(F)cc2)cs1 [Compound 55, N-(6-(4-(3-chloropropylsulfonyl)piperazin-1-yl)-2-ethylimidazo[1,2-a]pyridin-3-yl)-4-(4-fluorophenyl)-N-methylthiazol-2-amine] | 0.01 to 100 nM | > 1000 nM | 
CCOC(=O)CN1CCN(c2ccc3nc(CC)c(N(C)c4nc(-c5ccc(Cl)cc5)cs4)n3c2)C1=O [Compound 184, ethyl 2-(3-(3-((4-(4-chlorophenyl)thiazol-2-yl)(methyl)amino)-2-ethylimidazo[1,2-a]pyridin-6-yl)-2-oxoimidazolidin-1-yl)acetate] | 0.01 to 100 nM | > 1000 nM | 
CCc1nc2ccc(C3CCN(C(=O)CN4CCCC4)CC3)cn2c1N(C)c1nc(-c2ccc(F)cc2)cs1 [Compound 126, 1-(4-(2-ethyl-3-((4-(4-fluorophenyl)thiazol-2-yl)(methyl)amino)imidazo[1,2-a]pyridin-6-yl)piperidin-1-yl)-2-(pyrrolidin-1-yl) ethanone] | 0.01 to 100 nM | 100 to 500 nM | 
